Laboratory results: patent US3977944A, “Enzyme-kinetic determination of the concentration of a substrate” (Eppendorf Geratebau Netheler & Hinz GmbH, priority 1973, dated 1976)

Assays:
GlucDH = GlucDH (Priestia megaterium, UniProt P07999); experiment: Kinetic glucose determination with GlucDH, average inhibition (Table 3); assay type: biochemical
Source text: (§1) The exclusion of the interference of foreign inhibitors that can be achieved by the invention is illustrated by the measurements obtained for two different enzymes and two different inhibitors each, which are listed in the following two tables.

uricase [1] = target: T1, uricase (Sus scrofa, UniProt P16164); experiment: Inhibition of Uricase, Example 6; assay type: biochemical
T1 sequence (P16164 2-304 limits assumed): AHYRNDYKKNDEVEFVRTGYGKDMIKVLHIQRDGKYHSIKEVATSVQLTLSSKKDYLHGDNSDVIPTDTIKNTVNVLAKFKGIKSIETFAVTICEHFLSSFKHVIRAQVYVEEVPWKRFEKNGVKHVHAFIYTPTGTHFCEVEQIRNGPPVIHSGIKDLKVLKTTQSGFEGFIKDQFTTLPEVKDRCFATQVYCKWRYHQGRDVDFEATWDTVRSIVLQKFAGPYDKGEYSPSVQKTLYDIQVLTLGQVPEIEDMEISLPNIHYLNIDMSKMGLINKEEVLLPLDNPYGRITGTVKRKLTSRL
Source text: (§2) The following test mixture was used:
96 mmoles borate buffer pH = 9.5
114 - 7.6 μmoles uric acid

glucose dehydrogenase [2] = target: T2, glucose dehydrogenase (Priestia megaterium, UniProt P07999); experiment: Kinetic glucose determination with glucose-dehydrogenase, Example 5 (95 mU enzyme); assay type: biochemical
Source text: as §2
90 mmoles phosphate buffer pH = 7.6
40 mmoles sulfosalicylic acid
95 mU glucose dehydrogenase

[3] = target: uricase (prepared from swine liver) (Sus scrofa, UniProt P16164)
Experimental: Recording is started 20 seconds after initiation of the reaction: paper speed 2 cm/min, spread 20 cm for E=0-1. With an angle measuring means, the angle α formed with the time axis is measured at the beginning of each recording. The reciprocals of tan α are plotted as ordinates against the corresponding reciprocal uric acid concentrations (Lineweaver-Burk diagram). The calibration straight line is drawn through the points obtained with and without the addition of potassium thiocyanate.
For the determination of the apparent Michaelis constant, the reciprocals of the tangent α are plotted as ordinates, and the reciprocal molar substrate concentrations in the test mixture as abscissae. The apparent Michaelis constant is found as a negative reciprocal of the abscissae intersections of the straight lines of regression (insertion of suitable small values for 1/cS followed by graphic evaluation).

glucose dehydrogenase [4] = target: T2, glucose dehydrogenase; experiment: Kinetic glucose determination with glucose-dehydrogenase, Example 4 (1.8 U enzyme); assay type: biochemical
Source text: as §2
0.12 mole phosphate buffer pH = 7.6
40 millimoles sulfosalicylic acid
0.86 millimole - 2.59 millimoles glucose
1.8 U glucose-dehydrogenase

glucose dehydrogenase [5] = target: T2, glucose dehydrogenase; conditions: Lineweaver-Burk diagram, FIG. 1; 330 and 500 mmoles KSCN per liter of test solution
Experimental: The reaction was started by the admixture of 20 μl of 200 mmoles/l NAD^+, and recording was begun 10 seconds later: paper feed 5 cm/min, spread 20 cm for E = 0 - 1.
For the determination of the angle α with the axis of time the virtually linear initial area of the recording was evaluated; for the determination of the type of inhibitor, the reciprocals of tangent α (identical with the initial rate, for practical purposes) were plotted as ordinates and the reciprocals of the millimolar glucose concentrations used in the test were plotted as abscissae (Lineweaver-Burk diagram).
20 μl of specimen was incubated in the cell at 25°C with 500 μl of stabilized buffer-enzyme-inhibitor mixture and the reaction was started by the admixture of 20 μl NAD^+ (150 mg/ml H2 O). 20 seconds after the start of the reaction, recording was performed at a paper feed of 5 cm/min at Hg 366 nm, and the layer thickness 1.00 cm, and the angle α was determined 20 seconds after the start of the reaction in each case.

uricase [6] = target: T1, uricase; experiment: Kinetic uric acid determination with uricase, average inhibition (Table 4); assay type: biochemical
Source text: as §1

[7] = target: uricase obtained from swine liver (Sus scrofa, UniProt P16164); conditions: read-out: Michaelis constant of uricase, Tiffany et al., Anal. Chem. 45, 1716-23 (1973); cited from earlier work
[8] = 38.5 mmoles KSCN, glucose [S] 0.86 mmoles
[9] = 38.5 mmoles KSCN, glucose [S] 1.29 mmoles
[10] = 38.5 mmoles KSCN, glucose [S] 1.72 mmoles
[11] = 38.5 mmoles KSCN, glucose [S] 2.59 mmoles
[12] = 38.5 mmoles KSCN, glucose [S] 3.45 mmoles
[13] = 0.31 mole KSCN, glucose [S] 0.86 mmoles
[14] = 0.31 mole KSCN, glucose [S] 1.29 mmoles
[15] = 0.31 mole KSCN, glucose [S] 1.72 mmoles
[16] = 0.31 mole KSCN, glucose [S] 2.59 mmoles
[17] = 14 nmoles phloretin, glucose [S] 0.86 mmoles
[18] = 14 nmoles phloretin, glucose [S] 1.29 mmoles
[19] = 14 nmoles phloretin, glucose [S] 1.72 mmoles
[20] = 14 nmoles phloretin, glucose [S] 2.59 mmoles
[21] = 14 nmoles phloretin, glucose [S] 3.45 mmoles
[22] = 1.4 nmoles phloretin, glucose [S] 0.86 mmoles
[23] = 1.4 nmoles phloretin, glucose [S] 1.29 mmoles
[24] = 1.4 nmoles phloretin, glucose [S] 1.72 mmoles
[25] = 1.4 nmoles phloretin, glucose [S] 2.59 mmoles
[26] = 0.02 mmole xanthine, [S] 7.6 μmole
[27] = 0.02 mmole xanthine, [S] 38 μmole
[28] = 0.02 mmole xanthine, [S] 114 μmole

T2 sequence (P07999 whole entry): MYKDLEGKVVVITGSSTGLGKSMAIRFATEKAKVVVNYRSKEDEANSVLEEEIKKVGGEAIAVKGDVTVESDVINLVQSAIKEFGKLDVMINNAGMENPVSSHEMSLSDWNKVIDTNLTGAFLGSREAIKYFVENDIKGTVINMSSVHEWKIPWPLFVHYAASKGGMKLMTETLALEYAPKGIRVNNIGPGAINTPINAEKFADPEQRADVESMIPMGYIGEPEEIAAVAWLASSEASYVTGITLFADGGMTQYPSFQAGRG
GlucDH, sequence (P07999 whole entry): as above

## N#CS [KSCN, Potassium thiocyanate]
GlucDH; KSCN 38.5 millimoles
  Average inhibition in %: 17%
GlucDH; KSCN 310 millimoles
  Average inhibition in %: 78%
Uricase [1]; 0.5 mole KSCN, [S] 7.6 μmole
  % inh.: 86%
  ΔE/min: 3.3
Uricase [1]; 0.5 mole KSCN, [S] 38 μmole
  % inh.: 81%
  ΔE/min: 16.3
Uricase [1]; 0.5 mole KSCN, [S] 114 μmole
  % inh.: 73%
  ΔE/min: 46
Glucose dehydrogenase [2]; [8]
  % inh.: 17%
  ΔE/min: 28.0
Glucose dehydrogenase [2]; [9]
  % inh.: 18.8%
  ΔE/min: 40.3
Glucose dehydrogenase [2]; [10]
  % inh.: 21.69%
  ΔE/min: 49.7
Glucose dehydrogenase [2]; [11]
  % inh.: 8%
  ΔE/min: 72.3
Glucose dehydrogenase [2]; [12]
  % inh.: 17%
  ΔE/min: 90
[3]; 687 mmoles per liter of test solution, uric acid as substrate, 25°C
  apparent Michaelis constant: 1 mmol/L
[3]; Lineweaver-Burk plot, same ordinate intersection
  type of inhibitor: competitive inhibitor
Glucose dehydrogenase [4]; [13]
  % inh.: 85.5%
  ΔE/min: 4.5
Glucose dehydrogenase [4]; [14]
  % inh.: 80.3%
  ΔE/min: 8.0
Glucose dehydrogenase [4]; [15]
  % inh.: 80.6%
  ΔE/min: 10.5
Glucose dehydrogenase [4]; [16]
  % inh.: 77.5%
  ΔE/min: 17
Glucose dehydrogenase [5]
  type of inhibitor: competitive type of inhibitor
Uricase [6]; KSCN 10 millimoles
  Average inhibition in %: 17%
Uricase [6]; KSCN 40 millimoles
  Average inhibition in %: 41%
Uricase [6]; KSCN 500 millimoles
  Average inhibition in %: 82%

## O=C(CCc1ccc(O)cc1)c1c(O)cc(O)cc1O [Phloretin, phloretin]
GlucDH; Phloretin 1.4 micromoles
  Average inhibition in %: 20%
GlucDH; Phloretin 14 micromoles
  Average inhibition in %: 76%
Glucose dehydrogenase [2]; [17]
  % inh.: 74%
  ΔE/min: 8.7
Glucose dehydrogenase [2]; [18]
  % inh.: 77%
  ΔE/min: 11.3
Glucose dehydrogenase [2]; [19]
  % inh.: 78%
  ΔE/min: 14.0
Glucose dehydrogenase [2]; [20]
  % inh.: 76%
  ΔE/min: 20.3
Glucose dehydrogenase [2]; [21]
  % inh.: 75%
  ΔE/min: 26.7
Glucose dehydrogenase [4]; [22]
  % inh.: 22.8%
  ΔE/min: 24.0
Glucose dehydrogenase [4]; [23]
  % inh.: 26.0%
  ΔE/min: 30.0
Glucose dehydrogenase [4]; [24]
  % inh.: 15.8%
  ΔE/min: 45.5
Glucose dehydrogenase [4]; [25]
  % inh.: 17.1%
  ΔE/min: 62.5

## O=c1[nH]c(=O)c2[nH]cnc2[nH]1 [Xanthine, xanthine]
Uricase [1]; [26]
  % inh.: 49%
  ΔE/min: 14
Uricase [1]; [27]
  % inh.: 25%
  ΔE/min: 66
Uricase [1]; [28]
  % inh.: 26%
  ΔE/min: 127
Uricase [6]; Xanthine 20 micromoles
  Average inhibition in %: 34%
Uricase [6]; Xanthine 40 micromoles
  Average inhibition in %: 60%
Uricase [6]; Xanthine 80 micromoles
  Average inhibition in %: 76%

## O=c1[nH]c(=O)c2[nH]c(=O)[nH]c2[nH]1 [uric acid]
[7]
  Km: 17 µM
